# Earlier results in PMC6024518 (International Journal of Immunopathology and Pharmacology, 2018).
# System: SYK, JAK1, JAK2, JAK3 and other kinases
# Details: including JAK2
smiles,measurement,value
COc1cc(Nc2ncc(F)c(Nc3ccc4c(n3)NC(=O)C(C)(C)O4)n2)cc(OC)c1OC [R406],number of kinases inhibited more potently than SYK,24
